Results from BindingDB's records for PubMed 10087018 (University of Rochester, 1999).

Columns and labels:
Mu-type opioid receptor = Mu-type opioid receptor (Bos taurus, UniProt P79350)
Opioid receptor delta 1 = Opioid receptor delta 1 (Bos taurus, UniProt F1N083)
Opioid receptor delta 1, sequence (F1N083 whole entry): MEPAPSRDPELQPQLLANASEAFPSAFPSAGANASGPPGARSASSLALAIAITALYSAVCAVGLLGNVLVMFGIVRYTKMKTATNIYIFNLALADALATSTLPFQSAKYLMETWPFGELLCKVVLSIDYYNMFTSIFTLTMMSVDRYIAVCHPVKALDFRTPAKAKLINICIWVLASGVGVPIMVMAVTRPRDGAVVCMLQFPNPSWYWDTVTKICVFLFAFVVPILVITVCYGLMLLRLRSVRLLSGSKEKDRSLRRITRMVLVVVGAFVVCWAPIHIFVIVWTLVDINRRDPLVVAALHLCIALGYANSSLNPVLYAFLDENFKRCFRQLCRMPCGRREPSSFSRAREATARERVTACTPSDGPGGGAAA

Mu-type opioid receptor, sequence (P79350 whole entry): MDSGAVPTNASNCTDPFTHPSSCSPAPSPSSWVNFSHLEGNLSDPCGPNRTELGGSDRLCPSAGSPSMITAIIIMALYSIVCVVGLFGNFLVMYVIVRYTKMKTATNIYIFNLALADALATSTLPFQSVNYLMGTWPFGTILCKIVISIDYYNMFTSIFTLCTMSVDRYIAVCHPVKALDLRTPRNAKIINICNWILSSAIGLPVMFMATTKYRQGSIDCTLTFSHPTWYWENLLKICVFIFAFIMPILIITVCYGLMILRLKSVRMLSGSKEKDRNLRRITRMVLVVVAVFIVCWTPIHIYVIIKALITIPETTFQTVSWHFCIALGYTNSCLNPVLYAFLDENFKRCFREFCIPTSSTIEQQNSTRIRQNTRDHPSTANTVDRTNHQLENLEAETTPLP

| Structure (SMILES) | Ki (Mu-type opioid receptor) [nM] | Ki (Opioid receptor delta 1) [nM] |
| --- | --- | --- |
| COc1ccc2c3c1O[C@H]1C(=O)CCC4(NC(=O)/C=C\c5ccc([N+](=O)[O-])cc5)C(C2)N(C)CCC314 (stereo partly specified) [CACO] | 0.46 |  |
| COc1ccc2c3c1O[C@H]1C(=O)CCC4(NC(=O)/C=C\c5ccc(Cl)cc5)C(C2)N(C)CCC314 (stereo partly specified) [CAM] | 0.12 | 0.75 |
| COc1ccc2c3c1O[C@H]1C(=O)CCC4(NC(=O)/C=C\c5ccc(Cl)cc5)C(C2)N(CC2CC2)CCC314 (stereo partly specified) [MC-CAM] | 1.4 | 12 |
| COc1ccc2c3c1O[C@H]1C(=O)CCC4(NC(=O)/C=C\c5ccc([N+](=O)[O-])cc5)C(C2)N(CC2CC2)CCC314 (stereo partly specified) [N-CPM-CACO] |  | 16 |
